Target: ATX (human His-tagged) (Homo sapiens (Human), UniProt Q13822)
Assay: Human ATX enzyme inhibition assay (fluorescence quenching, MR121 substrate)
Type: biochemical
Settings: 30 nM ATX, 1 μM MR121 substrate, 30° C., pH 8.0
Experimental: Human ATX Enzyme Inhibition Assay
ATX inhibition was measured by a fluorescence quenching assay using a specifically labeled substrate analogue (MR121 substrate). To obtain this MR121 substrate, BOC and TBS protected 6-amino-hexanoic acid (R)-3-({2-[3-(2-{2-[2-(2-amino-ethoxy)-ethoxy]-ethoxy}-ethoxy)-propionylamino]-ethoxy}-hydroxy-phosphoryloxy)-2-hydroxy-propyl ester (Ferguson et al., Org Lett 2006, 8 (10), 2023) was labeled with MR121 fluorophore (CAS 185308-24-1, 1-(3-carboxypropyl)-11-ethyl-1,2,3,4,8,9,10,11-octahydro-dipyrido[3,2-b:2′,3′-i]phenoxazin-13-ium) on the free amine of the ethanolamine side and then, after deprotection, subsequently with tryptophan on the side of the aminohexanoic acid.
Assay working solutions were made as follows:
Assay buffer (50 mM Tris-HCl, 140 mM NaCl, 5 mM KCl, 1 mM CaCl2, 1 mM MgCl2, 0.01% Triton-X-100, pH 8.0;
ATX solution: ATX (human His-tagged) stock solution (1.08 mg/mL in 20 mM bicine, pH 8.5, 0.15 M NaCl, 10% glycerol, 0.3% CHAPS, 0.02% NaN3), diluted to 1.4-2.5× final concentration in assay buffer;
MR121 substrate solution: MR121 substrate stock solution (800 μM MR121 substrate in DMSO), diluted to 2-5× final concentration in assay buffer.
Test compounds (10 mM stock in DMSO, 8 μL) were obtained in 384 well sample plates (Corning Costar #3655) and diluted with 8 μL DMSO. Row-wise serial dilutions were made by transferring 8 μL cpd solution to the next row up to row O. The compound and control solutions were mixed five times and 2 μL were transferred to 384 well assay plates (Corning Costar #3702). Then, 15 μL of 41.7 nM ATX solution was added (30 nM final concentration), mixed five times and then incubated for 15 minutes at 30° C. 10 μL of MR121 substrate solution was added (1 μM final concentration), mixed 30 times and then incubated for 15 minutes at 30′C.

Going from O=C(c1ccc2[nH]nnc2c1)N1C[C@@H]2[C@H](C1)[C@H]1CN(C(=O)c3cc4cc(OC(F)(F)F)ccc4[nH]3)C[C@@H]21 [Example 1.010, [(3aR,3bS,6aR,6bS)-5-(1H-benzotriazole-5-carbonyl)-octahydro-cyclobuta[1,2-c;3,4-c′]dipyrrol-2-yl]-(5-trifluoromethoxy-1H-indol-2-yl)-methanone] to O=C(c1ccc2[nH]nnc2c1)N1C[C@@H]2[C@H](C1)[C@H]1CN(C(=O)c3cc4ccc(Cl)cc4[nH]3)C[C@@H]21 [Example 1.033, [(3aR,3bS,6aR,6bS)-5-(1H-benzotriazole-5-carbonyl)-octahydro-cyclobuta[1,2-c;3,4-c′]dipyrrol-2-yl]-(6-chloro-1H-indol-2-yl)-methanone], the IC50 rises from 16 nM to 104 nM (6.5-fold).

O=C(c1ccc2[nH]nnc2c1)N1C[C@@H]2[C@H](C1)[C@H]1CN(C(=O)c3cc(OCC(F)(F)F)c4ccccc4n3)C[C@@H]21 [Example 1.084, (1H-benzotriazol-5-yl)-{(3aS,3bR,6aS,6bR)-5-[4-(2,2,2-trifluoro-ethoxy)-quinoline-2-carbonyl]-octahydro-cyclobuta[1,2-c;3,4-c′]dipyrrol-2-yl}-methanone] and CCOc1cc(C(=O)N2C[C@@H]3[C@H]4CN(C(=O)c5ccc6[nH]nnc6c5)C[C@H]4[C@@H]3C2)nc2ccccc12 [Example 1.066, [(3aR,3bS,6aR,6bS)-5-(1H-benzotriazole-5-carbonyl)-octahydro-cyclobuta[1,2-c;3,4-c′]dipyrrol-2-yl]-(4-ethoxy-quinolin-2-yl)-methanone] are the same in IC50: 5 nM for the first, 5 nM for the second.

Compared with COc1c(C(=O)N2C[C@@H]3[C@H]4CN(C(=O)c5ccc6[nH]nnc6c5)C[C@H]4[C@@H]3C2)ccc2ccccc12 [Example 1.022, [(3aS,3bS,6aR,6bR)-5-(1H-benzotriazole-5-carbonyl)-octahydro-cyclobuta[1,2-c;3,4-c′]dipyrrol-2-yl]-(1-methoxy-naphthalen-2-yl)-methanone], CCOc1cc(C(=O)N2C[C@@H]3[C@H](C2)[C@H]2CN(C(=O)c4ccc5[nH]nnc5c4)C[C@@H]32)cc2ccccc12 [Example 1.051, [(3aS,3bS,6aR,6bR)-5-(1H-benzotriazole-5-carbonyl)-octahydro-cyclobuta[1,2-c;3,4-c′]dipyrrol-2-yl]-(4-ethoxy-naphthalen-2-yl)-methanone] is 22-fold lower in IC50: 155 nM for the first, 7 nM for the second. The second is the more potent here.

Compared with O=C1CC(C(=O)N2C[C@@H]3[C@H]4CN(C(=O)c5ccc6[nH]nnc6c5)C[C@H]4[C@@H]3C2)Cc2ccccc21 (stereo partly drawn) [Example 1.041, 3-[(3aS,3bR,6aS,6bR)-5-(1H-benzotriazole-5-carbonyl)-octahydro-cyclobuta[1,2-c;3,4-c′]dipyrrole-2-carbonyl]-3,4-dihydro-2H-naphthalen-1-one], COCCCN1CC(C(=O)N2C[C@@H]3[C@H]4CN(C(=O)c5ccc6[nH]nnc6c5)C[C@H]4[C@@H]3C2)Cc2ccccc21 (stereo partly drawn) [Example 1.056, [(3aS,3bR,6aS,6bR)-5-(1H-benzotriazole-5-carbonyl)-octahydro-cyclobuta[1,2-c;3,4-c′]dipyrrol-2-ylH1-(3-methoxy-propyl)-1,2,3,4-tetrahydro-quinolin-3-yl]-methanone] is 19-fold lower in IC50: 538 nM for the first, 29 nM for the second. The second is the more potent here.

First: O=C(c1ccc(OCC(F)(F)F)nc1)N1C[C@@H]2[C@H](C1)[C@H]1CN(C(=O)c3ccc4[nH]nnc4c3)C[C@@H]21 [Example 1.099, (1H-benzotriazol-5-yl)-{(3aS,3bS,6aR,6bR)-5-[6-(2,2,2-trifluoro-ethoxy)-pyridine-3-carbonyl]-octahydro-cyclobuta[1,2-c;3,4-c′]dipyrrol-2-yl}-methanone]
Second: O=C(c1ccc2[nH]nnc2c1)N1C[C@@H]2[C@H](C1)[C@H]1CN(C(=O)c3cccc(OCC(F)(F)F)n3)C[C@@H]21 [Example 1.098, (1H-benzotriazol-5-yl)-{(3aS,3bR,6aS,6bR)-5-[6-(2,2,2-trifluoro-ethoxy)-pyridine-2-carbonyl]-octahydro-cyclobuta[1,2-c;3,4-c′]dipyrrol-2-yl}-methanone]
The IC50 of the first is 3.1-fold lower: 277 nM for the first, 859 nM for the second.

CCOc1c(C(=O)N2C[C@@H]3[C@H]4CN(C(=O)c5ccc6[nH]nnc6c5)C[C@H]4[C@@H]3C2)ccc2c1ccn2CC [Example 1.081, [(3aS,3bS,6aR,6bR)-5-(1H-benzotriazole-5-carbonyl)-octahydro-cyclobuta[1,2-c;3,4-c′]dipyrrol-2-yl]-(4-ethoxy-1-ethyl-1H-indol-5-yl)-methanone] and CC(C)Oc1cc(C(=O)N2C[C@@H]3[C@H]4CN(C(=O)c5ccc6[nH]nnc6c5)C[C@H]4[C@@H]3C2)cc2c1ccn2C [Example 1.065, [(3aS,3bS,6aR,6bR)-5-(1H-benzotriazole-5-carbonyl)-octahydro-cyclobuta[1,2-c;3,4-c′]dipyrrol-2-yl]-(4-isopropoxy-1-methyl-1H-indol-6-yl)-methanone] are within 1.5-fold of each other in IC50: 7.5 nM for the first, 6.5 nM for the second.

O=C(c1cnc(OCC(F)(F)F)c(C2CC2)c1)N1C[C@@H]2[C@H](C1)[C@H]1CN(C(=O)c3ccc4[nH]nnc4c3)C[C@@H]21 [Example 1.104, (1H-benzotriazol-5-yl)-{(3aS,3bS,6aR,6bR)-5-[5-cyclopropyl-6-(2,2,2-trifluoro-ethoxy)-pyridine-3-carbonyl]-octahydro-cyclobuta[1,2-c;3,4-c′]dipyrrol-2-yl}-methanone] and O=C(c1cnc(OCC(F)(F)F)c(Br)c1)N1C[C@@H]2[C@H](C1)[C@H]1CN(C(=O)c3ccc4[nH]nnc4c3)C[C@@H]21 [Example 1.100, (1H-benzotriazol-5-yl)-{(3aS,3bS,6aR,6bR)-5-[5-bromo-6-(2,2,2-trifluoro-ethoxy)-pyridine-3-carbonyl]-octahydro-cyclobuta[1,2-c;3,4-c′]dipyrrol-2-yl}-methanone] are the same in IC50: 10 nM for the first, 10 nM for the second.

First: O=C(c1ccc2[nH]nnc2c1)N1C[C@@H]2[C@H](C1)[C@H]1CN(C(=O)c3ccc4c(c3)[nH]c3ccc(Cl)cc34)C[C@@H]21 [Example 1.068, [(3aS,3bS,6aR,6bR)-5-(1H-benzotriazole-5-carbonyl)-octahydro-cyclobuta[1,2-c;3,4-c′]dipyrrol-2-yl]-(6-chloro-9H-carbazol-2-yl)-methanone]
Second: Cc1ccc2ccc(C(=O)N3C[C@@H]4[C@H](C3)[C@H]3CN(C(=O)c5ccc6[nH]nnc6c5)C[C@@H]43)cc2c1 [Example 1.014, [(3aS,3bS,6aR,6bR)-5-(1H-benzotriazole-5-carbonyl)-octahydro-cyclobuta[1,2-c;3,4-c′]dipyrrol-2-yl]-(7-methyl-naphthalen-2-yl)-methanone]
The IC50 of the first is 3.1-fold lower: 14.3 nM for the first, 45 nM for the second. The first is the more potent here.

Compared with Cc1ccc(C(=O)N2C[C@@H]3[C@H](C2)[C@H]2CN(C(=O)c4ccc(OCC5CC5)nn4)C[C@@H]32)cc1C [Example 1.102, [(3aS,3bR,6aS,6bR)-5-(6-cyclopropylmethoxy-pyridazine-3-carbonyl)-octahydro-cyclobuta[1,2-c;3,4-c′]dipyrrol-2-yl]-(3,4-dimethyl-phenyl)-methanone], O=C(c1cc2ccccc2c(OCC2CC2)n1)N1C[C@@H]2[C@H](C1)[C@H]1CN(C(=O)[C@@H]3CCc4[nH]nnc4C3)C[C@@H]21 [Example 1.064, (1-cyclopropylmethoxy-isoquinolin-3-yl)-[(3aR,3bS,6aR,6bS)-5-((R)-4,5,6,7-tetrahydro-1H-benzotriazole-5-carbonyl)-octahydro-cyclobuta[1,2-c;3,4-c′]dipyrrol-2-yl]-methanone] is 990-fold lower in IC50: 992 nM for the first, 1 nM for the second.

First: O=C(c1ccc(-c2ccc(F)cc2)cc1)N1C[C@@H]2[C@H](C1)[C@H]1CN(C(=O)c3ccc4[nH]nnc4c3)C[C@@H]21 [Example 1.002, [(3aS,3bS,6aR,6bR)-5-(1H-benzotriazole-5-carbonyl)-octahydro-cyclobuta[1,2-c;3,4-c′]dipyrrol-2-yl]-(4′-fluoro-biphenyl-4-yl)-methanone]
Second: CC(C)Oc1cc(C(=O)N2C[C@@H]3[C@H]4CN(C(=O)c5ccc6[nH]nnc6c5)C[C@H]4[C@@H]3C2)nc2cc(C(F)(F)F)ccc12 [Example 1.070, [(3aR,3bS,6aR,6bS)-5-(1H-benzotriazole-5-carbonyl)-octahydro-cyclobuta[1,2-c;3,4-c′]dipyrrol-2-yl]-(4-isopropoxy-7-trifluoromethyl-quinolin-2-yl)-methanone]
The IC50 of the first is 16-fold higher: 64 nM for the first, 4 nM for the second.

CC(C)Oc1cc(C(=O)N2C[C@@H]3[C@H]4CN(C(=O)c5ccc(S(N)(=O)=O)cc5)C[C@H]4[C@@H]3C2)cc2ccccc12 [Example 1.062, 4-[(3aS,3bS,6aR,6bR)-5-(4-isopropoxy-naphthalene-2-carbonyl)-octahydro-cyclobuta[1,2-c;3,4-c′]dipyrrole-2-carbonyl]benzenesulfonamide] gave an IC50 of 9 nM.
